For series [1], the system named is Antigen-induced Bronchoconstriction. As to the kind of experiment: Effect on antigen-induced bronchoconstriction in sensitized guinea pigs (Test Example 2"). In kind it is in vivo, guinea pig (male Hartley). To be noted: Cavia porcellus, po, read-out: Inhibitory rate; for inhibition at 0.025 mg/kg: 0.025 mg/kg (Table 4"); for inhibition at 0.1 mg/kg: 0.1 mg/kg (Table 4"). On the procedure:
(§1) The test animals used were male guinea pigs of the Hartley strain (weighing about 400 to 500 g). These animals were sensitized according to Morris' method [H. R. Morris; Br. J. Pharmac., 67, 179-184 (1979)]. The guinea pigs were injected twice subcutaneously and intraperitoneally, each time with 25 mg of egg albumin (grade 5, Sigma) at weekly intervals. 7 days after the second of these weekly injections, the animals were fasted for one day and then exposed to an aerosol of egg albumin (10 mg/ml). All of the animals so exposed responded with convulsions, indicating respiratory distress due to airway constriction, within 6 minutes.
60 minutes before the egg albumin challenge, one of the test compounds shown in the following Table 4" was administered orally to each of the animals.

Series [2] concerns Passive Cutaneous Anaphylaxis (PCA). As to the kind of experiment: Inhibitory effect on passive cutaneous anaphylaxis (PCA) in rats (Test Example 1"). The series is classed as in vivo, rat (male SD). The following applies: Rattus norvegicus, po, read-out: Inhibitory rate; for inhibition at 0.05 mg/kg: 0.05 mg/kg (Table 3"); for inhibition at 0.2 mg/kg: 0.2 mg/kg (Table 3"); for inhibition at 3.1 mg/kg: 3.1 mg/kg (Table 3"). As to the method: Male SD rats (5 weeks old) were used as the test animals in groups, each containing 4 animals. The rats were sensitized by intradermal injection of 0.05 ml of the diluted antiserum solution in the dorsal position. […] 60 minutes later they were injected in the caudal vein with 5 ml/kg body weight of physiological saline containing 0.4% w/v of egg albumin and 1.0% w/v of Evans Blue.
(§2) The inhibitory rate was calculated by the following equation.
(§3) Inhibitory rate (%)=(1-B/A)×100
(§4) A: amount of exuded dye in the control group
(§5) B: amount of exuded dye in the test group.

Another series relates to pentobarbital anesthesia. Kind of series: Prolongation of pentobarbital anesthesia (Test Example 3). The series is classed as in vivo, guinea pig (male Hartley). To be noted: for AD (oral dose which prolonged the pentobarbital-induced anesthesia by 15%, AD15): 1 hr before pentobarbital 30 mg/kg s.c. The text has this:
Sedation is the side effect with the highest incidence in histamine (H1)-blockers and anti-allergic drugs with an H1 blocking effect (Douglas, W. W. (1980) The Pharmacological Basis of Therapeutis, A. Goodman Gilman, L. S. Goodman, A. Gilman (eds), Macmillian, New York) and therefore anti-allergic drugs which overcome this disadvantage are needed. We investigated the effects of test compounds on pentobarbital anesthesia as a method for measuring incidence of sedation in animals.
Prolongation effects on anesthesia are usually investigated with ethanol or thiopental (in mice and rats). However, we investigated it with pentobarbital in guinea pigs because our data with pentobarbital corresponded well with the clinical data, that is, the incidence of sedation of other anti-allergic drugs in clinical use.
Sodium Pentobarbital (30 mg/kg) was subcutaneously injected into the backs of male Hartley guinea pigs weighing approximately 400 g, and the duration of postural reflex abolition was then measured.
Test compounds were administered orally 1 hr before the pentobarbital injection. The prolongation rate obtained with the test compound was calculated by comparison to the control (the duration of pentobarbital anesthesia in animals untreated with the test compounds). In addition, the AD15 value (the oral dose which prolonged the pentobarbital-induced anesthesia by 15%) was determined, and the results are shown in the table.

Series [3] deals with Passive Cutaneous Anaphylaxis (PCA). Kind of series: Inhibitory effect on passive cutaneous anaphylaxis (PCA) in rats (Test Example 1). In kind it is in vivo, rat (male SD). To be noted: Rattus norvegicus, po, read-out: Inhibitory rate. On the procedure:
Male SD rats (5 weeks old) were used as the test animals in groups, each containing 4 animals. The rats were sensitized by intradermal injection of 0.05 ml of the diluted antiserum solution in the dorsal position. 48 hours after this injection, a suspension of the test compound in an aqueous 0.5% w/v tragacanth solution was orally administered to the rats, fasted for one day, and 60 minutes later they were injected in the caudal vein with 5 ml/kg body weight of physiological saline containing 0.4% w/v egg albumin and 1.0% w/v Evans Blue.
as §2, §3, §4, §5

The subject of the next series is eosinophil accumulation. Kind of series: Inhibitory effect on antigen induced eosinophil accumulation (Test Example 4).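 Also: oral dose 0.1 mg/kg.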 To be noted: Cavia porcellus, Eosinophil, po, 1 hr before antigen challenge, BALF 24 hr after. In kind it is in vivo, guinea pig (male Hartley). On the procedure:
Male Hartley guinea pigs weighing approximately 400 g were sensitized with ovalbumin by the method described by Engineer et al. (Engineer, D. M. et al., J. Pharmacol., 62, 61-66 (1978)), and the number of eosinophils infiltrating into the bronchoalveolar space due to antigen challenge was examined.
Briefly, the animals were exposed to the antigen (ovalbumin) for 6 min. At 24 hr. after antigen challenge, the guinea pigs were anesthetized with pentobarbital (30 mg/kg, i.p.). The trachea was cannulated by a disposable intravenous catheter, and the airway lumen (especially in the right posterior lobe) was washed with 0.9% saline (10 ml/kg) kept at 37° C. The bronchoalveolar lavage fluid (BALF) from each animal was centrifuged (150 g for 10 min at 4° C.). After removing the supernatant, the cell pellet was resuspended in HBSS (Hank's balanced solution) and a total cell count was performed using a standard hemocytometer. Differential cell counts were done on smears fixed in methanol and stained with Wright-Giemsa solution, and by light microscopy under oil immersion (×1000). The proportion of eosinophil population was expressed as a percentage of total cells, and this ratio together with the total cell count was used to calculate the total number of eosinophils. The percent inhibition of the test compounds which was administered 1 hr before antigen challenge, was calculated as follows:
Percent inhibition=[1-(C-A)/(B-A)]×100
A: negative control: mean value of cell counts in BALF from the animals with inhaled saline
B: positive control: mean value of cell counts in BALF from the animals 24 h after antigen challenge
C: cell counts of BALF for the animals pretreated with a test compound 24 h after antigen challenge

The test system of a further series is eosinophil chemotaxis. Kind of series: Inhibitory effect of eosinophil chemotaxis to zymosan-activated serum (Test Example 4). The series is classed as cell-based, guinea pig. The following applies: Cavia porcellus, Eosinophil, 0.1 μg/ml; ZAS. From the text:
Eosinophils were harvested from the peritoneal cavity of polymyxin B-treated guinea pigs (body weight, approx. 400 g) according to the method described by Pincus (Pincus, S. H. et al.: Blood, 52, 127-134 (1978)). The eosinophils were separated and purified by Ficoll-paque (Pharmacia) density gradient centrifugation. Then, the eosinophil chemotaxis to zymosan-activated serum (ZAS) was investigated by a modification of the Boyden micropore filter technique (Gosset, P. et al.: Clin. Exp. Immunol., 65, 654-663 (1986)). Briefly, the assay was carried out in a 48-well microchemotaxis assembly (Neuroprobe; Cabin John, Md., U.S.A.). Cell suspensions were adjusted to 2.5×10^5 /50 μl, and placed in the upper chamber separated from the chemoattractant (ZAS) solution in the lower chamber by a 3 μm pore size polycarbonate membrane filter (Nucleopore Co., Pleasanton, U.S.A.). The cells were incubated for 10 min at 37° C. with the test compounds, prior to their addition to the chemotaxis chamber. Migration was carried out at 37° C. in humidified air with 5% CO2 for 2 h. After the incubation, the migrated eosinophils in the lower Chamber were counted by a hemocytometer.
The percentage inhibition obtained with the test compound was calculated by comparison to the positive control (migration of non-treated cells in response to the ZAS), according to the formula:
Percent inhibition=[1-(A/B)]×100
A: (migration with a test compound)-(spontaneous migration)
B: (positive control migration)-(spontaneous migration)

The test system of series [4] is Antigen-induced Bronchoconstriction. As to the kind of experiment: Effect on antigen-induced bronchoconstriction in sensitized guinea pigs (Test Example 2). In kind it is in vivo, guinea pig (male Hartley). The following applies: Cavia porcellus, po, 60 min before challenge, read-out: Inhibitory rate. As to the method: as §1, with “were” for “were injected twice”, “intraperitoneally injected twice,” for “intraperitoneally,”
60 minutes before the egg albumin challenge, one of the test compounds shown in the following Table 5 was administered orally to each of the animals.

Each structure is given as a SMILES string. Structures can show the parent of a compound that is named as a salt.

Consider `O=C(O)CCCN1CCN2c3ccccc3Cn3cccc3[C@H]2C1` [3"], for which, in series [1], the inhibition at 0.025 mg/kg turned out to be 60% and the inhibition at 0.1 mg/kg is 100%. In series [2], the inhibition at 0.05 mg/kg was 66% and the inhibition at 0.2 mg/kg is 72%.
On to `O=C(O)CCCN1CCN2c3ccccc3Cc3ccccc3C2C1` (racemic) [Example 22, 4-(1,2,3,4,10,14b-Hexahydrodibenzo[c,f]pyrazino[1,2-a]azepin-2-yl)butanoic acid], for which the “AD (oral dose which prolonged the pentobarbital-induced anesthesia by 15%, AD15)” value with pentobarbital anesthesia (po, guinea pigs) stood at 59 mg/kg.
Regarding `NC(=O)CCN1CCN2c3ccccc3Cc3ccccc3C2C1` (stereo not shown) [Prior art compound F, 2-(2-carboxamidoethyl)-1,2,3,4,10,14b-hexahydrodibenzo[c,f]pyrazino[1,2-a]azepine, reference compound], the inhibition at 3.1 mg/kg in series [3] and in series [2] was 52% each time.
For the compound `O=C(O)CCCN1CCN2c3ccccc3Cc3ccccc3[C@H]2C1` [22 S-isomer], the “AD (oral dose which prolonged the pentobarbital-induced anesthesia by 15%, AD15)” value in the series on pentobarbital anesthesia (po, guinea pigs) was found to be 75 mg/kg.
As for `O=C(O)CCCN1CCN2c3ccccc3Cc3ccccc3[C@@H]2C1` [22 HCl R-isomer], in series [1], the inhibition at 0.025 mg/kg is 40% and the inhibition at 0.1 mg/kg was determined as 80%. Also, in series [1] (0.4 mg/kg (Table 4")), the inhibition at 0.4 mg/kg is 100%. This compound had an inhibition at 0.1 mg/kg in the series with eosinophil accumulation of 59%. In the series with eosinophil chemotaxis, the inhibition at 0.1 µg/mL is 53%. Besides, in series [2], the inhibition at 0.05 mg/kg turned out to be 55% and the inhibition at 0.2 mg/kg was determined as 67%.
On to `OCCCN1CCN2c3ccccc3Cc3ccccc3C2C1` (stereo not shown) [Example 16, 3-(1,2,3,4,10,14b-Hexahydrodibenzo[c,f]pyrazino[1,2-a]azepin-2-yl)propanol], for which, in series [3], the inhibition at 0.8 mg/kg came out at 48% and the inhibition at 3.1 mg/kg was found to be 63%. In series [4], the inhibition at 0.1 mg/kg is 60% and the inhibition at 0.4 mg/kg was determined as 100%.
In the case of `O=C(O)COCCN1CCN2c3ccccc3Cc3ccccc3C2C1` (stereo not shown) [Example 2], in series [3], the inhibition at 0.05 mg/kg was 62% and the inhibition at 0.8 mg/kg came to 74%. Further, in series [4], the inhibition at 0.025 mg/kg is 20% and the inhibition at 0.1 mg/kg stood at 80%.
For `NC(=O)COCCN1CCN2c3ccccc3Cc3ccccc3C2C1` (stereo not shown) [Example 26, 2-(1,2,3,4,10,14b-Hexahydrodibenzo[c,f]pyrazino[1,2-a]azepin-2-yl)ethoxyacetamide], in series [3], the inhibition at 0.05 mg/kg worked out at 44% and the inhibition at 0.2 mg/kg amounted to 63%. Also, in series [4], the inhibition at 0.4 mg/kg was found to be 80%.
With `CCOC(=O)COCCN1CCN2c3ccccc3Cc3ccccc3C2C1` (stereo not shown) [Example 1], in series [3], the inhibition at 0.2 mg/kg was 56% and the inhibition at 3.1 mg/kg stood at 65%. Besides, in series [4], the inhibition at 0.025 mg/kg was determined as 20% and the inhibition at 0.1 mg/kg worked out at 50%.
Regarding `O=C(O)CCCN1CCN2c3ccccc3Cc3ccccc3[C@@H]2C1` [22 R-isomer], the “prolongation of anesthesia side effect” value in the series on pentobarbital anesthesia (in words) is on record as “extremely low”. Further, in the series with pentobarbital anesthesia (po, guinea pigs), the “AD (oral dose which prolonged the pentobarbital-induced anesthesia by 15%, AD15)” value came out at 123 mg/kg. Besides, the “amount of R-isomer required as compared with the racemate for the same prolongation time” value in the series on pentobarbital anesthesia (ratio to racemate, po, guinea pigs) was “about double”.
Consider `OCCOCCOCCN1CCN2c3ccccc3Cc3ccccc3C2C1` (stereo not shown) [Example 7], for which, in series [3], the inhibition at 0.8 mg/kg came to 50% and the inhibition at 3.1 mg/kg was 57%. In series [3] (12.5 mg/kg), the inhibition at 12.5 mg/kg was determined as 72%. Also, the inhibition at 0.4 mg/kg in series [4] turned out to be 100%.
Take `OCCN1CCN2c3ccccc3Cn3cccc3C2C1` (stereo not shown) [Prior art compound D, 2-(2-hydroxyethyl)-1,3,4,14b-tetrahydro-2H, 10H-pyrazino[1,2-a]pyrrolo[2,1-c][1,4]benzodiazepine, reference compound]: the inhibition at 3.1 mg/kg in series [3] and in series [2] was 30% in each case.
Turning to `O=C(O)CCCCCN1CCN2c3ccccc3Cc3ccccc3C2C1` (racemic) [Example 24, 6-(1,2,3,4,10,14b-Hexahydrodibenzo[c,f]pyrazino[1,2-a]azepin-2-yl)hexanoic acid], in series [3], the inhibition at 0.05 mg/kg turned out to be 46% and the inhibition at 3.1 mg/kg was 74%. Further, in series [4], the inhibition at 0.1 mg/kg was 80% and the inhibition at 0.4 mg/kg is 100%.

These data come from US5476848A, “14B(R) isomers of novel tetracyclic compounds having anti-allergic and anti-asthmatic activities, and their use” (Sankyo Company, Limited, priority 1989, dated 1995).
